In US5455356A, “Fungicidal 1-aryl-1-[α-(triazolyl)alkyl]-1-silacycloalkanes and their preparation methods” (priority 1993, dated 1995) one finds inhibition of growth data, which are given here for nine compounds.

Common to all, as to assay type: cell-based
In one assay the test system is Botryosphaeri. Kind of assay: In vitro mycelial/spore growth on potato-sucrose-agar, percent disease control (BD). The settings on record: read-out: % controlled, BD. How it is done: (§1) The compounds of this invention were dissolved respectively in acetone in an amount equal to 10% of the final volume and then in purified water at the concentration of 100 ppm and 50 ppm.
(§2) Each of the solution was mixed with potato-sucrose-agar medium in 6" petri dish and one of the fungi was spotted at the center of the dish. The dish was incubated in growth room for several days. The percent disease control was derived from the radii of spore growth. The screening tests in vitro condition are well-known to those skilled in the art.
(§3) The following fungi were used for the screening.
4) Bo. do (Ma); Botryosphaeri

A further assay relates to Phytophthora capsisi. Kind of assay: In vitro mycelial/spore growth on potato-sucrose-agar, percent disease control (PC). Conditions: read-out: % controlled, PC. How it is done: as §1, §2, §3
2) Phy. ca.; Phytophthora capsisi

The subject of the next assay is Fusarium moniliforme. Kind of assay: In vitro mycelial/spore growth on potato-sucrose-agar, percent disease control (FM). Conditions: Fusarium verticillioides, Fusarium moniliforme, read-out: % controlled, FM. The protocol: as §1, §2, §3
8) Fu. mo.; Fusarium moniliforme

In a further assay the test system is GC. Kind of assay: In vitro mycelial/spore growth on potato-sucrose-agar, percent disease control (GC). Conditions: read-out: % controlled, GC; for inhibition of growth at 50 ppm: GC. How it is done: as §1, §2, §3
The next assay concerns Botritis cinerea. Kind of assay: In vitro mycelial/spore growth on potato-sucrose-agar, percent disease control (BC). Conditions: read-out: % controlled, BC. The protocol:
as §1, §2, §3
10) Bo. ci.; Botritis cinerea

For a further assay, the system named is Rhizoctonia solani. Kind of assay: In vitro mycelial/spore growth on potato-sucrose-agar, percent disease control (RS, first column). The settings on record: read-out: % controlled, RS. How it is done:
as §1, §2, §3
7) Rhi. so.; Rhizoctonia solani

The test system of a further assay is Pyricalaria oryzae. Kind of assay: In vitro mycelial/spore growth on potato-sucrose-agar, percent disease control (PO). The settings on record: read-out: % controlled, PO. How it is done: as §1, §2, §3
6) Py. or.; Pyricalaria oryzae

Another assay has as its system Rhizopus sp. Kind of assay: In vitro mycelial/spore growth on potato-sucrose-agar, percent disease control (RS, second column). Conditions: read-out: % controlled, RS; for inhibition of growth at 50 ppm: Rhizopus sp.; for inhibition of growth at 200 ppm: Rhizopus. The protocol:
as §1, §2, §3
9) Rhi. sp.; Rhizopus sp.

Consider `Fc1ccc([Si]2(Cn3cncn3)CCCC2)c(F)c1` [1-(2,4-difluorophenyl)-1-(1H-1,2,4-triazole-1-yl)methyl-1-silacyclopentane], for which the inhibition of growth at 50 ppm was found to be 100% in the assay with Botryosphaeri; 32% in the assay on Phytophthora capsisi; 100% in the assay with Fusarium moniliforme; 100% in the assay with GC; 100% in the assay on Botritis cinerea; 76% in the assay on Rhizoctonia solani. The inhibition of growth at 50 ppm in the assay on Pyricalaria oryzae came to 100%; with Rhizopus sp., 63%. Further, the inhibition of growth at 200 ppm with Botryosphaeri came out at 100%; in the assay on Phytophthora capsisi it was 85%; in the assay on Fusarium moniliforme, 100%; in the assay on GC, 100%; in the assay on Botritis cinerea, 100%; in the assay on Rhizoctonia solani, 100%. The inhibition of growth at 200 ppm was 100% with Pyricalaria oryzae and 72% with Rhizopus sp..
Turning to `CC(n1cncn1)[Si]1(c2ccc(-c3ccccc3)cc2)CCCC1` (stereo not drawn) [1-(4-biphenyl)-1-[α-(1H-1,2,4-triazole-1-yl)ethyl]-1-silacyclopentane], the inhibition of growth at 50 ppm in the assay with Botryosphaeri worked out at 100%; in the assay with Phytophthora capsisi it was 80%; in the assay on Fusarium moniliforme, 97%; in the assay on GC, 100%; with Botritis cinerea, 100%; in the assay with Rhizoctonia solani it was 100%. Also, the inhibition of growth at 50 ppm worked out at 100% in the assay on Pyricalaria oryzae and 86% in the assay on Rhizopus sp.. The inhibition of growth at 200 ppm in the assay on Botryosphaeri, with Phytophthora capsisi, in the assay with Fusarium moniliforme, with GC, with Botritis cinerea and in the assay with Rhizoctonia solani was 100% throughout. For the same compound, the inhibition of growth at 200 ppm turned out to be 100% in the assay with Pyricalaria oryzae and 90% with Rhizopus sp..
On to `CC(n1cncn1)[Si]1(c2ccc(C(F)(F)F)cc2)CCCCC1` (stereo not drawn) [1-(4-trifluoromethyl)-1-[α-(1H-1,2,4-triazole-1-yl)ethyl]-1-silacyclohexane], for which the inhibition of growth at 50 ppm in the assay on Botryosphaeri was 100%; with Phytophthora capsisi, 39%; in the assay with Fusarium moniliforme it was 58%; in the assay on GC, 100%; with Botritis cinerea it was 66%; with Rhizoctonia solani, 99%. Moreover, the results for the inhibition of growth at 50 ppm in the assay with Pyricalaria oryzae and in the assay on Rhizopus sp. were 100% and 47%, respectively. Also, the inhibition of growth at 200 ppm with Botryosphaeri stood at 100%; in the assay with Phytophthora capsisi it was 78%; in the assay on Fusarium moniliforme, 99%; in the assay on GC, 100%; in the assay with Botritis cinerea, 99%; in the assay with Rhizoctonia solani, 100%. The inhibition of growth at 200 ppm in the assay on Pyricalaria oryzae turned out to be 100%; with Rhizopus sp., 56%.
With `CC(n1cncn1)[Si]1(c2ccc(Cl)cc2)CCCC1` (stereo not drawn) [1-(4-chlorophenyl)-1-[α-(1H-1,2,4-triazole-1-yl)ethyl]-1-silacyclopentane], the inhibition of growth at 50 ppm was 100% in the assay with Botryosphaeri; 30% in the assay with Phytophthora capsisi; 100% in the assay with Fusarium moniliforme; 100% in the assay with GC; 100% in the assay on Botritis cinerea; 100% in the assay with Rhizoctonia solani. Moreover, the inhibition of growth at 50 ppm in the assay with Pyricalaria oryzae is 100%; with Rhizopus sp. it was 42%. The inhibition of growth at 200 ppm with Botryosphaeri, in the assay with Phytophthora capsisi, with Fusarium moniliforme, with GC, with Botritis cinerea and in the assay with Rhizoctonia solani was 100% in each case. For the same compound, the figures for the inhibition of growth at 200 ppm in the assay with Pyricalaria oryzae and in the assay on Rhizopus sp. were 100% and 60%, respectively.
`COc1ccc([Si]2(C(C)n3cncn3)CCCC2)cc1` (stereo not drawn) [1-(4-methoxyphenyl)-1-[α-(1H-1,2,4-triazole-1-yl)ethyl]-1-silacyclopentane]: the inhibition of growth at 50 ppm came out at 71% with Botryosphaeri; 50% with Phytophthora capsisi; 94% in the assay on Fusarium moniliforme; 100% in the assay on GC; 81% in the assay with Botritis cinerea; 100% in the assay on Rhizoctonia solani. In addition, the results for the inhibition of growth at 50 ppm with Pyricalaria oryzae and in the assay on Rhizopus sp. were 100% and 59%, respectively. The inhibition of growth at 200 ppm in the assay with Botryosphaeri was determined as 96%; in the assay on Phytophthora capsisi it was 90%; in the assay on Fusarium moniliforme it was 99%; in the assay with GC, 100%; in the assay with Botritis cinerea, 95%; in the assay on Rhizoctonia solani, 100%. Also, the values for the inhibition of growth at 200 ppm in the assay with Pyricalaria oryzae and in the assay with Rhizopus sp. were 100% and 80%, respectively.
Turning to `COc1ccc([Si]2(C(C)n3cncn3)CCCCC2)cc1` (stereo not drawn) [1-(4-methoxoyphenyl)-1-[α-(1H-1,2,4-triazole-1-yl)ethyl]-1-silacyclohexane], the inhibition of growth at 50 ppm in the assay with Botryosphaeri amounted to 92%; in the assay with Phytophthora capsisi, 55%; with Fusarium moniliforme, 94%; in the assay with GC, 100%; in the assay on Botritis cinerea, 64%; in the assay on Rhizoctonia solani, 93%. Further, the inhibition of growth at 50 ppm in the assay on Pyricalaria oryzae was found to be 100%; in the assay with Rhizopus sp., 49%. For the same compound, the inhibition of growth at 200 ppm in the assay with Botryosphaeri is 100%; in the assay with Phytophthora capsisi, 85%; in the assay with Fusarium moniliforme, 98%; in the assay on GC, 100%; in the assay on Botritis cinerea, 100%; in the assay with Rhizoctonia solani it was 100%. Further, the results for the inhibition of growth at 200 ppm in the assay on Pyricalaria oryzae and with Rhizopus sp. were 100% and 60%, respectively.
On to `Fc1ccc([Si]2(Cn3cncn3)CCCCC2)c(F)c1` [1-(2,4-difluorophenyl)-1-(1H-1,2,4-triazole-1-yl)methyl-1-silacyclohexane], for which the inhibition of growth at 50 ppm in the assay on Botryosphaeri is 100%; with Phytophthora capsisi it was 67%; in the assay on Fusarium moniliforme, 100%; in the assay with GC, 100%; in the assay with Botritis cinerea, 100%; with Rhizoctonia solani it was 41%. Besides, the values for the inhibition of growth at 50 ppm in the assay on Pyricalaria oryzae and in the assay on Rhizopus sp. were 100% and 53%, respectively. Moreover, the inhibition of growth at 200 ppm in the assay with Botryosphaeri was found to be 100%; with Phytophthora capsisi, 89%; in the assay on Fusarium moniliforme, 100%; with GC, 100%; in the assay with Botritis cinerea, 100%; in the assay on Rhizoctonia solani, 61%. Further, the inhibition of growth at 200 ppm was found to be 100% with Pyricalaria oryzae and 61% in the assay on Rhizopus sp..
`COc1ccc([Si]2(Cn3cncn3)CCCCC2)cc1` [1-(4-methoxyphenyl)-1-(1H-1,2,4-triazole-1-yl)methyl-1-silacyclohexane]: the inhibition of growth at 50 ppm was 85% in the assay with Botryosphaeri; 49% with Phytophthora capsisi; 81% with Fusarium moniliforme; 100% in the assay on GC; 69% in the assay with Botritis cinerea; 96% in the assay on Rhizoctonia solani. For the same compound, the results for the inhibition of growth at 50 ppm in the assay on Pyricalaria oryzae and in the assay on Rhizopus sp. were 100% and 65%, respectively. Moreover, the inhibition of growth at 200 ppm with Botryosphaeri is 100%; with Phytophthora capsisi it was 93%; in the assay on Fusarium moniliforme, 92%; in the assay with GC, 100%; in the assay with Botritis cinerea, 89%; in the assay on Rhizoctonia solani it was 100%. Moreover, the inhibition of growth at 200 ppm came to 100% in the assay on Pyricalaria oryzae and 79% in the assay on Rhizopus sp..
With `Clc1ccc([Si]2(Cn3cncn3)CCCCC2)c(Cl)c1` [1-(2,4-dichlorophenyl)-1-(1H-1,2,4-triazole-1-yl)methyl-1-silacyclohexane], the inhibition of growth at 50 ppm with Botryosphaeri stood at 98%; in the assay on Phytophthora capsisi it was 65%; with Fusarium moniliforme it was 100%; in the assay with GC, 100%; in the assay with Botritis cinerea, 97%; with Rhizoctonia solani, 20%. In addition, the inhibition of growth at 50 ppm was found to be 100% in the assay on Pyricalaria oryzae and 50% in the assay with Rhizopus sp.. Moreover, the inhibition of growth at 200 ppm in the assay on Botryosphaeri came out at 100%; with Phytophthora capsisi, 87%; in the assay on Fusarium moniliforme it was 100%; in the assay on GC it was 100%; in the assay with Botritis cinerea, 100%; with Rhizoctonia solani, 50%. In addition, the inhibition of growth at 200 ppm with Pyricalaria oryzae came to 100%; in the assay with Rhizopus sp., 72%.
